Assay results taken from publication PMC12668289 (RSC Chemical Biology, 2025).

Legend:
[1] = biological target: Fluc (Photinus pyralis, UniProt P08659); conditions: Fluc; cited from earlier work
[2] = system: SLR; assay: Stability of BL signals (half-time of light emission); format: biochemical, Phrixothrix hirtus; conditions: compared to 2a
Method: 1.5 Bioluminescence characterizations
Reactions of luciferases, including Photinus pyralis luciferase (Fluc), Phrixothrix hirtus luciferase (SLR), Pyrearinus termitilluminans […]
mM D-LH 2 analogues, 3 mM ATP, 6 mM MgCl2, and 10 µM luciferase in 0.2 ml of 100 mM HEPES-NaOH pH 8.0. The bioluminescence (BL) emission characteristics were recorded using a microplate reader in a BL mode (Thermo Scientific, Varioskan, LUX multimode). A digital single-lens reflex (DSLR) camera (Nikon D80, CCD sensor) with a 30-second exposure period was used to capture the BL images. […]

Chain of Fluc (P08659 whole entry): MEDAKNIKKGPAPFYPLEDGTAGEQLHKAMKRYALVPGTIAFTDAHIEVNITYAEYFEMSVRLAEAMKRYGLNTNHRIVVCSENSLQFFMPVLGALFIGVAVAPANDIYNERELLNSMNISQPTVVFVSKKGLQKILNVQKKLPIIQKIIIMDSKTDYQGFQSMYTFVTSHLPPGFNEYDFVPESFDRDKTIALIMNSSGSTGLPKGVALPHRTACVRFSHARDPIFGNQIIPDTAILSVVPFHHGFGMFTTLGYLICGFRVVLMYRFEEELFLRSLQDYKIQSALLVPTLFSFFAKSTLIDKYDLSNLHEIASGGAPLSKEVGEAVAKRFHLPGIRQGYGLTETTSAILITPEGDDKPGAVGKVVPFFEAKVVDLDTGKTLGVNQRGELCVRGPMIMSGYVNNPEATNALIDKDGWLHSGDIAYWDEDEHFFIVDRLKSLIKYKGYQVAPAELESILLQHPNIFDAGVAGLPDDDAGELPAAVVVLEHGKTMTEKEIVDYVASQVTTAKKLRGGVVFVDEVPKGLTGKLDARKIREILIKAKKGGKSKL

| SMILES | Quantum yield [1] | BL half-life (t1/2) longer than that of 2a [2] |
| --- | --- | --- |
| O=C(O)[C@H]1CSC(c2nc3ccc(O)cc3s2)=N1 [Compound 2a, D-luciferin, reference compound] | 41% |  |
| Cc1cc2nc(C3=N[C@@H](C(=O)O)CS3)sc2cc1O [Compound 2b, 5’-methyl-D-luciferin] |  | about 1.5 fold |
